# Test results reported in US7834009B2, “4-hydroxy-5,6-dihydro-1H-pyridin-2-one compounds” (Anadys Pharmaceuticals, Inc., priority 2007, dated 2010).
# Biological target: HCV NS5B polymerase (Hepatitis C virus genotype 1b, UniProt P26663)
# Test: biochemical
# Settings: 20 nM enzyme, 0.6 μM GTP, 250 nM 5′biotinylated oligo (rG13)/poly rC, 75 min at 28° C.
# Procedure: Compounds were tested for HCV polymerase inhibition. Assays were performed in a 96-well streptavidin-coated FlashPlate using 20 nM enzyme, 0.5 μCi of [α-^33P]GTP, 0.6 μM GTP, and 250 nM 5′biotinylated oligo (rG13)/poly rC in 20 mM Tris-HCl, pH 7.5, 5 mM MgCl2, 5 mM dithiothreitol, 0.1 g/L bovine serum albumin, and 100 U/mL RNAse inhibitor. The reaction was stopped by aspiration after 75 min at 28° C. and the plate was washed several times. After washing and drying the plate, incorporated radioactivity was counted using a Microbeta scintillation counter. IC50 values were calculated relative to the uninhibited control and inhibition data were fitted to a 4-parameter IC50 equation.
# HCV NS5B polymerase, sequence (P26663 2420-3010): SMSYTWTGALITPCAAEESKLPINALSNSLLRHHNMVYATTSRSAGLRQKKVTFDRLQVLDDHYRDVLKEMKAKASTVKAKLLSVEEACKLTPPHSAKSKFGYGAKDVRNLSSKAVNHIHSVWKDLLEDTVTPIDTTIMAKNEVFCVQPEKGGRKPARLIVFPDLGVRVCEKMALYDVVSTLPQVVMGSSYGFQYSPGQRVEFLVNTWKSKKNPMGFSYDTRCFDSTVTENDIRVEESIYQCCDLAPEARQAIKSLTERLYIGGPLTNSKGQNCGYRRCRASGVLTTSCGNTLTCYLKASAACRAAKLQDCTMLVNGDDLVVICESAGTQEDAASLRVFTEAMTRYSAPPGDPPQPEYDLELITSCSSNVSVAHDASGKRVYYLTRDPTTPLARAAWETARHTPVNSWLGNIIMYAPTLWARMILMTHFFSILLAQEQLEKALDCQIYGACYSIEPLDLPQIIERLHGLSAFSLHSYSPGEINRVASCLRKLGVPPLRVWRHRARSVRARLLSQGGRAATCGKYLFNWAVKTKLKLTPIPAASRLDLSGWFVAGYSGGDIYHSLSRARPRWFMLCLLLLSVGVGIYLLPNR
row,Compound,IC50 [nM]
1,"CC1(c2ccccc2)CN(C2CCC2)C(=O)C(C2=NS(=O)(=O)c3cc(NS(C)(=O)=O)ccc3N2)=C1O (centres unmarked) [Example 32, N-[3-(1-Cyclobutyl-4-hydroxy-5-methyl-2-oxo-5-phenyl-1,2,5,6-tetrahydro-pyridin-3-yl)-1,1-dioxo-1,4-dihydro-1λ^6-benzo[1,2,4]thiadiazin-7-yl]-methanesulfonamide]",1000 to 4000
2,"CC(C)CCN1CC(C)(C)C(O)=C(C2=NS(=O)(=O)c3cc(NS(C)(=O)=O)ccc3N2)C1=O [Example 11, N-{3-[4-Hydroxy-5,5-dimethyl-1-(3-methyl-butyl)-2-oxo-1,2,5,6-tetrahydro-pyridin-3-yl]-1,1-dioxo-1,4-dihydro-1λ^6-benzo[1,2,4]thiadiazin-7-yl}-methanesulfonamide]",100 to 1000
3,"CC1(C)CN(C2CCCC2)C(=O)C(C2=NS(=O)(=O)c3cc(NS(C)(=O)=O)ccc3N2)=C1O [Example 18, N-[3-(1-Cyclopentyl-4-hydroxy-5,5-dimethyl-2-oxo-1,2,5,6-tetrahydro-pyridin-3-yl)-1,1-dioxo-1,4-dihydro-1λ^6-benzo[1,2,4]thiadiazin-7-yl]-methanesulfonamide]",1000 to 4000
4,"CC#CCC1(C)CN(C2CCCC2)C(=O)C(C2=NS(=O)(=O)c3cc(NS(C)(=O)=O)ccc3N2)=C1O (centres unmarked) [Example 26, N-[3-(5-But-2-ynyl-1-cyclopentyl-4-hydroxy-5-methyl-2-oxo-1,2,5,6-tetrahydro-pyridin-3-yl)-1,1-dioxo-1,4-dihydro-1λ^6-benzo[1,2,4]thiadiazin-7-yl]-methanesulfonamide]",100 to 1000
5,"CC(C)CC1CC(O)=C(C2=NS(=O)(=O)c3cc(NS(C)(=O)=O)ccc3N2)C(=O)N1C1CCCC1 (centres unmarked) [Example 56, N-[3-(1-Cyclopentyl-4-hydroxy-6-isobutyl-2-oxo-1,2,5,6-tetrahydro-pyridin-3-yl)-1,1-dioxo-1,4-dihydro-1λ^6-benzo[1,2,4]thiadiazin-7-yl]-methanesulfonamide]",1000 to 4000
6,"CC(C)CCC1CC(O)=C(C2=NS(=O)(=O)c3cc(NS(C)(=O)=O)ccc3N2)C(=O)N1C1CCCC1 (centres unmarked) [Example 53, N-{3-[1-Cyclopentyl-4-hydroxy-6-(3-methyl-butyl)-2-oxo-1,2,5,6-tetrahydro-pyridin-3-yl]-1,1-dioxo-1,4-dihydro-1λ^6-benzo[1,2,4]thiadiazin-7-yl}-methanesulfonamide]",1000 to 4000
7,"CC(C)CCC1(COCc2ccccc2)CN(C2CCCC2)C(=O)C(C2=NS(=O)(=O)c3cc(NS(C)(=O)=O)ccc3N2)=C1O (centres unmarked) [Example 58, N-{3-[5-Benzyloxymethyl-1-cyclopentyl-4-hydroxy-5-(3-methyl-butyl)-2-oxo-1,2,5,6-tetrahydro-pyridin-3-yl]-1,1-dioxo-1,4-dihydro-1λ^6-benzo[1,2,4]thiadiazin-7-yl}-methanesulfonamide]",1000 to 4000

# Continued, values first:
row,IC50 [nM],Compound
1,100 to 1000,"CC(C)CCN1C(=O)C(C2=NS(=O)(=O)c3cc(NS(C)(=O)=O)ccc3N2)=C(O)C[C@@H]1c1ccccc1 [Example 49, N-{3-[4-Hydroxy-1-(3-methyl-butyl)-2-oxo-6(R)-phenyl-1,2,5,6-tetrahydro-pyridin-3-yl]-1,1-dioxo-1,4-dihydro-1λ^6-benzo[1,2,4]thiadiazin-7-yl}-methanesulfonamide]"
2,< 100,"CC(C)CCC1(C)CN(N2CCCC2)C(=O)C(C2=NS(=O)(=O)c3cc(NS(C)(=O)=O)ccc3N2)=C1O (centres unmarked) [Example 7, N-{3-[4-Hydroxy-5-methyl-5-(3-methyl-butyl)-2-oxo-1-pyrrolidin-1-yl-1,2,5,6-tetrahydro-pyridin-3-yl]-1,1-dioxo-1,4-dihydro-1λ^6-benzo[1,2,4]thiadiazin-7-yl}-methanesulfonamide]"
3,< 100,"CC(C)=CCC1CN(C2CCCC2)C(=O)C(C2=NS(=O)(=O)c3cc(NS(C)(=O)=O)ccc3N2)=C1O (centres unmarked) [Example 22, N-{3-[1-Cyclopentyl-4-hydroxy-5-(3-methyl-but-2-enyl)-2-oxo-1,2,5,6-tetrahydro-pyridin-3-yl]-1,1-dioxo-1,4-dihydro-1λ^6-benzo[1,2,4]thiadiazin-7-yl}-methanesulfonamide]"
4,< 100,"CC(C)CCC1(C)C(O)=C(C2=NS(=O)(=O)c3cc(NS(C)(=O)=O)ccc3N2)C(=O)N2CCCC21 (centres unmarked) [Example 5, N-{3-[7-Hydroxy-8-methyl-8-(3-methyl-butyl)-5-oxo-1,2,3,5,8,8a-hexahydro-indolizin-6-yl]-1,1-dioxo-1,4-dihydro-1λ6-benzo[1,2,4]thiadiazin-7-yl}-methanesulfonamide]"
5,< 100,"CC(C)(C)CCN1CC(C)(C2CCCC2)C(O)=C(C2=NS(=O)(=O)c3cc(NS(C)(=O)=O)ccc3N2)C1=O (centres unmarked) [Example 30, N-{3-[5-Cyclopentyl-1-(3,3-dimethyl-butyl)-4-hydroxy-5-methyl-2-oxo-1,2,5,6-tetrahydro-pyridin-3-yl]-1,1-dioxo-1,4-dihydro-1λ^6-benzo[1,2,4]thiadiazin-7-yl}-methanesulfonamide]"
6,< 100,"CC(C)[C@H]1CC(O)=C(C2=NS(=O)(=O)c3cc(NS(C)(=O)=O)ccc3N2)C(=O)N1Cc1ccc(F)c(Cl)c1 [Example 55, N-{3-[1-(3-Chloro-4-fluoro-benzyl)-4-hydroxy-6(R)-isopropyl-2-oxo-1,2,5,6-tetrahydro-pyridin-3-yl]-1,1-dioxo-1,4-dihydro-1λ^6-benzo[1,2,4]thiadiazin-7-yl}-methanesulfonamide]"
7,< 100,"CC(C)CCC1(CO)CN(C2CCCC2)C(=O)C(C2=NS(=O)(=O)c3cc(NS(C)(=O)=O)ccc3N2)=C1O (centres unmarked) [Example 54, N-{3-[1-Cyclopentyl-4-hydroxy-5-hydroxymethyl-5-(3-methyl-butyl)-2-oxo-1,2,5,6-tetrahydro-pyridin-3-yl]-1,1-dioxo-1,4-dihydro-1λ^6-benzo[1,2,4]thiadiazin-7-yl}-methanesulfonamide]"
